In US7691387B2, “Cinnamomi and poria composition, method to prepare same and uses thereof” (Jiangsu Kanion Pharmaceutical Co., Ltd, priority 2000, dated 2010):

Tested on: uterine smooth muscle induced by oxytocin
Assay: Contraction of uterine smooth muscle induced by oxytocin
Design: species or system Wister rats; contraction frequency: unit not given here
Details: for contraction frequency: oxytocin 10 mu/ml alone; for contraction activity / contraction activity, controlling % / contraction frequency, controlling % / contraction range / contraction range, controlling %: oxytocin alone
Experimental: Twenty-four hours prior to the experiment, intramuscularly inject non-pregnant female rats with a 0.3 mg/kg weight-dose of Dihydrotheelin. The effect artificially puts them in estrus period so as to increase their sensitivity to the CCP. Decapitate the rats, rapidly paunch, take out the uterus and remove the fat. Cut the uterus in 2 cm of length and put it directly in the homothermic flume with 9 ml of the Locke's solution. One end of the uterus must be fixed on the crotchet of the L shaped ventilating pipe and the other end connected to the Muscle Tension Transducer. Keep the temperature of the homothermic flume at 32° C. Continuously emit oxygen into the fume, at least 60-80 bladders per minute and add in 1 ml of the previous solution with a different concentration. After recording a segment of normal contraction curve, observe the different phases before-and-after administering the drug. Respectively, record the contraction frequency and range. Observe from 1 to 10, 10 to 20, and 20 to 30 minutes before-and-after adding the drug solution. Count the uterine activity, and record data between control groups before-and-after administering the drug.
Observe CCP's effect in smooth muscle contraction of rats' extracorporeal uterine induced by oxytocin. Respectively, record the contraction frequency and range. Observe from 1 to 10, 10 to 20, and 20 to 30 minutes before-and-after adding the drug solution. Count the uterine activity and the inhibitory percentage. Record data as previously done.
Animals' Grouping: randomly divide Wister female rats' extra-corporeal uteruses into normal saline control group (NSG) and CCP's group. The CCP's group is formed by 4 subgroups with seven uteruses each. The dose of CCP's extract is respectively 5.4, 2.7, 1.3, and 0.6 mg/ml.
Results: after adding 10 mu/ml oxytocin to the normal uterine smooth muscle there is an increase of the contraction frequency and the uterine activity. The contraction range is also affected reaching its peak for about 10 min to then stabilize on the level. After 40 minutes, the effect gradually drops. After the oxytocin reacts for 10 minutes, add in a different dose of CCP's extract, and compare the possible differences between the CCP's group and the oxytocin's group. A 5.4, 2.7 mg/ml dose of CCP's extract can control the increase of uterine activity induced by oxytocin, and mainly reduce contraction frequency of uterine smooth muscle (See Table 8 and 13).

SMILES: CC[C@H](C)[C@@H]1NC(=O)[C@H](Cc2ccc(O)cc2)NC(=O)[C@@H](N)CSSC[C@@H](C(=O)N2CCC[C@H]2C(=O)N[C@@H](CC(C)C)C(=O)NCC(N)=O)NC(=O)[C@H](CC(N)=O)NC(=O)[C@H](CCC(N)=O)NC1=O [Oxytocin]
- contraction frequency (after adm. 1-10 mins): 11.7 ± 1.5
- contraction frequency (after adm. 10-20 mins): 11.6 ± 1.9
- contraction frequency (after adm. 20-30 mins): 10.9 ± 1.17
- contraction frequency (before adm.): 7.0 ± 1.3
- contraction activity (after adm. 1-10 mins): 118.8 ± 77.6%
- contraction activity, controlling % (after adm. 1-10 mins): −108.8%
- contraction frequency, controlling % (after adm. 1-10 mins): −67.1%
- contraction range (after adm. 1-10 mins): 9.7 ± 5.0 mm
- contraction range, controlling % (after adm. 1-10 mins): −21.3%
- contraction activity (after adm. 10-20 mins): 129.6 ± 97.3%
- contraction activity, controlling % (after adm. 10-20 mins): −127.8%
- contraction frequency, controlling % (after adm. 10-20 mins): −65.7%
- contraction range (after adm. 10-20 mins): 10.4 ± 5.7 mm
- contraction range, controlling % (after adm. 10-20 mins): −30.0%
- contraction activity (after adm. 20-30 mins): 111.2 ± 86.5%
- contraction activity, controlling % (after adm. 20-30 mins): −95.4%
- contraction frequency, controlling % (after adm. 20-30 mins): −55.7%
- contraction range (after adm. 20-30 mins): 9.7 ± 6.1 mm
- contraction range, controlling % (after adm. 20-30 mins): −21.3%
- contraction activity (before adm.): 56.9 ± 21.6%
- contraction range (before adm.): 8.0 ± 2.6 mm
- contraction range, controlling % (column Before adm.): 8.8%
- contraction activity (column Oxytocin): 84.7 ± 22.0%
- contraction activity, controlling % (column Oxytocin): −48.9%
- contraction frequency, controlling % (column Oxytocin): −91.4%
- contraction range (column Oxytocin): 7.3 ± 3.2 mm
